# Experimental data as given in paper PMC2747021, “Synergistic Antibacterial and Anti-Inflammatory Activity of Temporin A and Modified Temporin B In Vivo” (PLoS ONE, 2009).
# No end group written: not given here.
# Key:
# [1] = tested on: Staphilococcus .aureus A172; settings: 20 h
# [2] = tested on: Staphilococcus.aureus A170; settings: single peptide; MIC100, MH broth, about 10^6 CFU/ml, 37°C 20 h, absorbance 600 nm, triplicate
# [3] = tested on: Salmonella enterica serovar Paratyphi; assay: Antibacterial activity, MIC100 broth dilution; assay type: cell-based; settings: single peptide; MIC100, MH broth, about 10^6 CFU/ml, 37°C 20 h, absorbance 600 nm, triplicate
# gram positive bacteria = assay: Antibacterial activity, summary for gram positive bacteria; assay type: cell-based; settings: for antimicrobial activity against gram positive bacteria: in words, approximately to the same extent as temporin A, data not shown
# Text: The study included the following species: Staphylococcus aureus (isolate A170, A172, 007), Listeria monocytogenes, Salmonella enterica serovar Paratyphi, Salmonella enterica serovar Typhimurium, Escherichia coli. Isolates were obtained from patients hospitalized at the Medical School of the University of Naples. Specimen were confirmed by PCR assay of the genes sea (S. aureus), MonoA (L. monocytogenes), abe (S. enterica serovar Paratyphi), FliC (S. enterica serovar Typhimurium), sat (E. coli) [20]–[23]. Bacteria were grown at 37°C in TSB medium (S. aureus and L. monocytogenes) or LB medium (the remaining bacterial species) (Difco, Becton Dickinson, Sparks, MD), harvested while in exponential phase (OD600 nm; 0-6-0.8), centrifuged (8×10^3 g for 10 min), washed with saline (0.15 M NaCl) and resuspended in saline (10^6–10^7 CFU/ml).
# Bacteria were grown at 37°C in TSB (S. aureus and L. monocytogenes) or in LB medium (the remaining bacterial species), harvested while in exponential phase (OD600 nm; 0-6-0.8), centrifuged (8×10^3 g for 10 min), washed with saline, resuspended in Muller Hinton (MH) broth at the concentration of approximately 10^6 CFU/ml and distributed, in triplicate, into 96 well plates (60 µl/well), mixed with twofold dilutions of the antimicrobial (TA: 5–100 µg, 40 µl/well; TB-YK: 4–100 µg, 40 µl/well; TA 5 µg+TB-YK 8 µg, 40 µl/well and incubated at 37°C for 20 h. The minimal concentration of the antimicrobial at which 100% inhibition of growth was observed (MIC100) was determined by measuring the absorbance at 600 nm (Biorad microplate reader model 680, Hercules, CA). The antibacterial activity was measured by spotting an aliquot (10 µl) of each well on TSA or LB agar and counting the CFU. A potential synergism between temporins was evaluated by adding combinations of two temporins in a serial twofold dilutions (TA: 5–100 µg;TB-YK: 4–100 µg; 40 µl/well) to wells containing 10^5 CFU/well in 60 µl. The presence of synergism was established as described.
# [4] = tested on: Staphilococcus aureus 007; settings: 20 h
# Escherichian coli = settings: 20 h
# Listeria monocytogenes = settings: 20 h
# gram negative bacteria = settings: for antimicrobial activity against gram negative bacteria: in words, data not shown
Substance,MIC [1] [µg/mL],MIC [2] [µg/mL],MIC [3] [µg/mL],MIC (gram positive bacteria; range over the gram positive bacteria tested) [µg/mL],MIC [4] [µg/mL],MIC (Escherichian coli) [µg/mL],MIC (Listeria monocytogenes) [µg/mL],MIC (gram negative bacteria; 20 h) [µg/mL],antimicrobial activity against gram positive bacteria (gram positive bacteria),antimicrobial activity against gram negative bacteria (gram negative bacteria)
"FLPLIGRVLSGIL-NH2 [TA, temporin A]",20,10,400,10 to 30,10,125,30,125 to 400,–,–
"H-LLPI VGNLLKSLL- NH2 [TB, temporin B]",–,–,–,–,–,–,–,–,active,totally inactive
H-YLLPI VGNLLKSLL- NH2 [TB-Y],–,–,–,–,–,–,–,–,active,totally inactive
